Measured values published in US20090208583A1, “TABLETS COMPRISING CANDESARTAN CILEXETIL” (Siegfried Generics International AG, priority 2006, published 2009).
Where a name gives a salt, the structure may show the parent alone.

Assays:
[1] = Storage stability of Example 1 tablets, contamination profile (HPLC peak area); conditions: for result with further compounds having a stabilizing action (in words): used instead of triethyl citrate and simethicone, analogously to the preceding examples
[2] = Storage stability of tablets of Examples 2 to 5, amended HPLC method; format: physicochemical; conditions: tablets of Examples 2 to 5, 50° C., 2 weeks
Description: Example 1 was repeated, but with the compounds and concentrations stated in Table 2. Triethyl citrate was applied to a mixture of the active compound, lactose and maize starch, the mixture was granulated with an aqueous solution of hydroxypropylcellulose, the granules were worked up with the additives listed in Table 2 to give the finished end mixture and this mixture was pressed to tablets with a rotary tablet press (Fette P1). Tablets with two different pressing pressures, or two different hardnesses (50 N and 80 N) were prepared and were stored in open brown glass containers at 50° C. for at least two weeks. At the same time, the end mixture which had not been subjected to pressure was stored at 4° C. in closed brown glass containers for the same period of time as a reference sample for comparison.
The tablets from Examples […], 3, 4 and 5 were investigated with an amended HPLC method, which led to other retention times. In this, the peaks correspond to the following compounds:
Peak at 1.7-1.8 min=desethyl-candesartan cilexetil Peak at 3.8-3.9 min=candesartan cilexetil Peak at 9.1-9.2 min=N-ethyl-candesartan cilexetil

| Compound | result with further compounds having a stabilizing action (in words) [1] | stabilizing action for candesartan cilexetil tablets during storage (in words) ([1]; Example 1 tablets, 50° C., two weeks) | stabilizing action (in words) [2] |
| --- | --- | --- | --- |
| CCCCOC(=O)CCCCCCCCC(=O)OCCCC [dibutyl sebacate] | Analogous results | – | – |
| CCOC(=O)c1ccccc1C(=O)OCC [diethyl phthalate] | Analogous results | – | – |
| COC(=O)c1ccccc1C(=O)OC [dimethyl phthalate] | Analogous results | – | – |
| CCCCOC(=O)CC(O)(CC(=O)OCCCC)C(=O)OCCCC [tributyl citrate] | Analogous results | – | – |
| CCOC(=O)CC(O)(CC(=O)OCC)C(=O)OCC [triethyl citrate] | – | stabilizing action | stabilizing action |
| COC(=O)CC(O)(CC(=O)OC)C(=O)OC [trimethyl citrate] | Analogous results | – | – |
